Reference: the NIST ThermoML archive (doi:10.1021/je800653d)

Assay: xn = mol fraction of the nth substance listed
Conditions: 101 kPa, Liquid; for speed of sound: Linear variable-path acoustic interferometer; for viscosity: Capillary tube (Ostwald / Ubbelohde) method

O=S1(=O)CCCC1 [sulfolane] + CCOC(C)=O
Conditions	mass density [kg/m3]	speed of sound [m/s]	viscosity [mPa·s]
298.15 K, x1 = 1	1263.9	1601	–
303.15 K, x1 = 0.0218	897.8	1134	0.4006
303.15 K, x1 = 0.1511	950.7	1196	0.5566
303.15 K, x1 = 0.2748	1001.1	1251	0.7832
303.15 K, x1 = 0.4012	1052.3	1313	1.118
303.15 K, x1 = 0.5068	1094	1366	1.5
303.15 K, x1 = 0.598	1127.6	1408	2.054
303.15 K, x1 = 0.7331	1175.4	1472	3.211
303.15 K, x1 = 0.8548	1215.5	1524	5.285
303.15 K, x1 = 0.9799	1255.5	1579	9.205
303.15 K, x1 = 1	1261.8	1588	10.03
308.15 K, x1 = 0.0218	893.2	1121	0.3819
308.15 K, x1 = 0.1511	947.1	1185	0.5275
308.15 K, x1 = 0.2748	997.7	1241	0.73
308.15 K, x1 = 0.4012	1048.8	1301	1.042
308.15 K, x1 = 0.5068	1090.3	1355	1.394
308.15 K, x1 = 0.598	1123.9	1398	1.882
308.15 K, x1 = 0.7331	1171.5	1465	2.923
308.15 K, x1 = 0.8548	1211.6	1515	4.756
308.15 K, x1 = 0.9799	1251.9	1569	8.078
308.15 K, x1 = 1	1257	1576	8.795
313.15 K, x1 = 0.0218	885.1	1092	0.3633
313.15 K, x1 = 0.1511	939.5	1154	0.4961
313.15 K, x1 = 0.2748	989.9	1216	0.6874
313.15 K, x1 = 0.4012	1040.5	1283	0.9781
313.15 K, x1 = 0.5068	1082.1	1346	1.292
313.15 K, x1 = 0.598	1116.7	1397	1.752
313.15 K, x1 = 0.7331	1164.7	1464	2.7
313.15 K, x1 = 0.8548	1205.5	1513	4.281
313.15 K, x1 = 0.9799	1245.8	1555	7.092
313.15 K, x1 = 1	1251.6	1558	7.837

O=S1(=O)CCCC1 [sulfolane] + CCCOC(C)=O
Conditions	mass density, 303.15 K [kg/m3]	mass density, 308.15 K [kg/m3]	mass density, 313.15 K [kg/m3]	speed of sound, 303.15 K [m/s]	speed of sound, 308.15 K [m/s]	speed of sound, 313.15 K [m/s]	viscosity, 303.15 K [mPa·s]	viscosity, 308.15 K [mPa·s]	viscosity, 313.15 K [mPa·s]
x1 = 0.0247	886.9	881.9	875.7	1154	1147	1134	0.5146	0.4827	0.4554
x1 = 0.1746	941.4	935.8	929.8	1214	1203	1189	0.726	0.6764	0.6342
x1 = 0.311	992.9	986.9	981.3	1266	1257	1243	1.019	0.9439	0.8781
x1 = 0.4416	1043.1	1037.9	1032.4	1322	1312	1301	1.438	1.325	1.222
x1 = 0.5468	1084.6	1079.6	1074	1368	1359	1352	1.922	1.762	1.617
x1 = 0.6489	1124.9	1120.1	1114.1	1419	1410	1401	2.624	2.375	2.176
x1 = 0.7639	1169.5	1164.7	1159.4	1474	1469	1458	3.92	3.502	3.185
x1 = 0.8733	1212.3	1207.6	1202.2	1530	1521	1510	5.863	5.217	4.662
x1 = 0.9823	1255.4	1251	1245.4	1579	1573	1555	9.305	8.132	7.222
x1 = 1	1261.8	1257	1251.6	1588	1576	1558	10.03	8.795	7.837

O=S1(=O)CCCC1 [sulfolane] + CCCCOC(C)=O
Conditions	mass density, 303.15 K [kg/m3]	mass density, 308.15 K [kg/m3]	mass density, 313.15 K [kg/m3]	speed of sound, 303.15 K [m/s]	speed of sound, 308.15 K [m/s]	speed of sound, 313.15 K [m/s]	viscosity, 303.15 K [mPa·s]	viscosity, 308.15 K [mPa·s]	viscosity, 313.15 K [mPa·s]
x1 = 0.0311	880.8	876.9	871.8	1182	1164	1146	0.6426	0.6016	0.5637
x1 = 0.1903	932.3	928.6	923.5	1232	1212	1193	0.895	0.8248	0.7699
x1 = 0.3402	985.2	980.9	975.4	1280	1261	1245	1.242	1.145	1.066
x1 = 0.474	1036.1	1030.9	1025.4	1327	1316	1301	1.722	1.577	1.457
x1 = 0.5789	1078.5	1072.7	1067.1	1372	1366	1354	2.3	2.082	1.903
x1 = 0.6793	1120.5	1114.4	1108.8	1424	1418	1408	3.027	2.717	2.471
x1 = 0.7887	1168.2	1162.1	1156.6	1477	1468	1466	4.275	3.837	3.436
x1 = 0.8876	1212.2	1207.1	1201.5	1528	1520	1510	6.2	5.499	4.902
x1 = 0.9836	1254.2	1250.1	1244.8	1577	1572	1556	9.049	7.925	6.987
x1 = 1	1261.8	1257	1251.6	1588	1576	1558	10.03	8.795	7.837
